{"source": "patent US9814659B2", "about": "“Methods of lightening the skin” (Johnson & Johnson Consumer Inc., priority 2012, dated 2017)", "test_system": "MatTek's MelanoDerm skin epidermal equivalent tissues (MEL-300-B; NHEK and NHM)", "assay": "Skin Epidermal Equivalents Model as a Skin Lightening Test (ΔL)", "assay_type": "cell-based, human", "description": "Skin Epidermal Equivalents Model as a Skin Lightening Test (ΔL)\nSkin epidermal equivalent tissues are available commercially from MatTek's MelanoDerm™ System and were used for the following tests. MatTek's MelanoDerm™ System consists of normal, human-derived epidermal keratinocytes (NHEK) and melanocytes (NHM) which have been cultured to form a multilayered, highly differentiated model of the human epidermis. Specifically, MEL-300-B tissues, each 9 mm in diameter were used in the following tests.\nThe test materials prepared in an appropriate vehicle and tested concentrations were applied topically to the skin model daily and the experiment lasted for 8 days. Measurement was taken on day 9.\nThe macroscopic and microscopic visual tissue darkening end points were measured by taking pictures with a digital camera. The Degree of Lightness for each tissue (L-Value) was measured using a spectrophotometer (Konica Minolta CM-2600d). The ΔL (degree of lightness as compared to control) for each test sample is calculated as per following formula: ΔL=L-value of treated sample−L-value of control sample."}
{"smiles": "CC(C)=CCCC(C)=CCCC(C)=CCOc1ccc(CCC(=O)O)cc1", "note": "[M-1, 3-(4-Farnesyloxyphenyl)propionic acid]", "values": [{"measurement": "Skin Lightening (ΔL Value)", "setting": "concentration 0.5%, topical daily for 8 days, measured day 9", "result": 1.2}, {"measurement": "Skin lightening efficacy compared with first extract E1", "setting": "same concentration (0.5%) as E1", "result": "equal to first extract E1"}]}
